Source: patent publication US8846914B2, “Compositions to effect neuronal growth” (Neuralstem, Inc., priority 2003, dated 2014)
Read-outs that look alike come from different tables or passages of the source.

Key:
[1] = system: human hippocampal stem cells; assay: Neurogenesis, TuJ1 immunostaining / Hoechst (primary screen); assay type: cell-based; settings: seven days of compound treatment; for Neuron Number (% of Control): TuJ1+ neurons per area; for Neuron Ratio (% of Control): ratio neuron:total cells (TuJ1/Hoechst)
Source text: FIG. 2 is a bar graph illustrating an example of a neurogenesis profile of compounds selected from primary screening. After seven days of compound treatment, the cells were stained with the neuron-specific anti-tubulin IIIb antibody. TuJ1, for neurons and Hoechst for all cell nuclei. Shown are the relative ratio of neuron: total cells for each compound over the vehicle control in percentage. Typical ratio for vehicle control is 40-50% neurons. The ratio can change by either increased differentiation of stem cells to neurons, decreased proliferation of astrocytes, or increased proliferation of neuronal progenitors.
FIG. 3 is a bar graph illustrating an example of a neurogenesis profile of compounds selected from primary screening. After seven days of compound treatment, the cells were stained with TuJ1 for neurons. The number of TuJ1+ neurons per area was quantified and expressed as a relative value to the vehicle treated control.
The final neuron number is detected by immunostaining of the culture with antibodies against neurons and is quantified by counting of the immunopositive neurons and/or by measuring the staining intensity. Therefore, after seven days of compound treatment, the cells are stained with the neuron-specific anti-tubulin IIIb antibody, TuJ1, for neurons and Hoechst for all cell nuclei. The number of TuJ1+ neurons per area is quantified and expressed as a value relative to the vehicle-treated control of Hoechst-stained cells. In this regard, the medium is removed from the wells by decanting and blotting the plates on paper towels. The cells are then fixed in 100 μl of 4% paraformaldehyde per well for thirty minutes at room temperature. The cells are washed three times with 400 μl per well of phosphate-buffered saline (PBS) at pH 7.5 for approximately ten minutes per wash. The plates are then stored at 4° C. in PBS or used immediately for staining.
The cells are subsequently stained with antibodies against neuron-specific antigens according to standard procedures. The staining process includes decanting the PBS and blocking the cells with 100 μl of 5% Normal Goat Serum (NGS) in PBS for one hour at room temperature. The NGS/PBS is decanted and the plates are blotted on a paper towel. The cells are then permeabilized with 0.1% Triton X-100 in PBS for 30 minutes at room temperature.
Typical neuron-specific antigens include Type III-beta tubulin and MAP-2c. The total cell number in each well was quantified by staining the cultures with a nuclear dye such as DAPI or Hoechst according to standard procedures. Therefore, once the cells are permeabilized, 20 μl of TuJ1, monoclonal antibody against neuronal class 111 β-tubulin (CoVance (BabCo) MMS-435P) and 32 μl of anti-GFAP polyclonal (DAKO Z0334) are added to and mixed of PBS with 5% NGS. Final dilutions of TuJ1 and anti-GFAP are 1:400 and 1:250, respectively. 90 μl of the antibody solution is added to each well except two eleventh column. 90 μl of PBS/5% NGS is added to the eleventh column and no cells are added to the twelfth column. The plate(s) are sealed with parafilm and incubated at 4° C. overnight.
After incubating the cells overnight, the antibody solution is decanted and 200 μl of PBS/0.1% Triton X-100 is added to the wells. The plate(s) are placed on a shaker and incubated at room temperature with gentle shaking for ten minutes. The cells are again washed with the PBS/Triton X-100 solution another two times.
Following staining with TuJ1 and anti-GFAP, 20 μl of Alexa Fluor 488 labeled goat anti-moose IgG (H+L) (Molecular Probes A-11001) and 100 μl of LRSC-IgG, goat anti-rabbit (Jackson Immune 111-295-144) is added and mixed with 10 ml of PBS/5% NGS. 100 μl of the resulting antibody solution is added to each well. The plate(s) are covered with foil and incubated with gentle shaking for up to one hour at room temperature. The cells are again washed as described above with PBS and an Triton X-100. […]

[2] = system: human hippocampal stem cells differentiated for 3-4 weeks; assay: Neuroprotection against staurosporine-induced neurodegeneration; assay type: cell-based; settings: 125 nM staurosporine, twenty-four hour, 10 μM agent; for inhibition at 10 µM: Homo sapiens, 24 h
Method: FIG. 7A is a bar graph illustrating an example of a neuroprotection profile of the compounds against staurosporine-induced human hippocampal neurodegeneration as indicated by loss of neurons after twenty-four hour treatment with staurosporine by counting the remaining number of neurons, an increase in […], and an increase in intracellular levels of activated caspase-3/-7 detected by immunostaining. Addition of 125 nM staurosporine solution to human hippocampal stem cells differentiated for 3-4 weeks causes neuronal injury and death. Effect of the […] treatment to inhibit the staurosporine-induced neuronal loss and injury are shown. Each bar represents n=6 wells of the mean+/−the SEM from a single experiment.
Effect of the compound treatment to inhibit the staurosporine-induced neuronal loss and injury are shown. Each bar represents n=6 wells of the mean+/−the SEM from a single experiment.
Agents that promote proliferation and neurogenesis are further evaluated for their ability to inhibit neurodegeneration and apoptosis of the human hippocampal multipotent stem cell-derived neurons. Neurodegeneration may be induced in culture using any number of inducers as known by those skilled in the art. Examples of neurodegenerative inducers include: staurosporine, hypoxia reperfusion, free radicals, glutamate agonists, activated monocyte supernatant, beta amyloid peptides and corticosteroids to name a few. Some of the neurogenic agents inhibit loss of neurons, inhibit caspase activation, inhibit nuclear fragmentation or condensation, inhibit lactate dehydrogenase activity among other effects on neurodegeneration. Using staurosporine as an example, 125 nM of a staurosporine solution is added along with 10 μM of one of the listed neurogenic agents to human hippocampal stem cells differentiated for 3-4 weeks.
A number of neurogenic agents inhibit neuronal loss, caspase-3 activity and/or nuclear fragmentation compared to staurosporine vehicle control. These NSI small molecule agents are all effective at in vitro neurogenesis as determined by methods described. More particularly, human hippocampal stem cells differentiated for a period of 3-4 weeks are treated with an agent for 8-24 hrs in a neuronal maintenance media prior to treatment with an apoptotic or neurodegenerative insults such as staurosporin, TNFα and LPS-stimulated monocyte supernatant and the like. Following the treatment period, media is removed from the treated cells and the cells are fixed and stained. Staining may include Hoechst stain, MAP-2ab (AP-20) antibody staining, active caspase-3 antibody or other measures of neurodegeneration and apoptosis. Instrumentation such as a Molecular Devices fluorescent plate reader or a […] Array Scan II instrument and the like may be used to measure the degeneration and apoptosis.
FIGS. 7A, 7B and 7C illustrate an example of a neuroprotection profile of tested compounds against staurosporine-induced human hippocampal neurodegeneration measured by the remaining number of neurons, an increase in nuclear fragmentation, and an increase in intracellular levels of activated caspase-3/-7 detected by immunostaining, respectively. Human hippocampal stem cells that have been differentiated for 3-4 weeks undergo a twenty-four hour treatment with 125 nM staurosporine solution to cause neuronal injury and death. The effect of the compound treatment to inhibit the staurosporine-induced neuronal loss and injury is shown in each of FIGS. 7A, 7B and 7C. Each bar represents n=6 wells of the mean+/−the SEM from a single experiment.

[3] = read-out: Stauro % Inhib Nuclear Frag
[4] = read-out: Stauro % Inhib Caspase-3

| SMILES | Neuron Number (% of Control) [1] | Neuron Ratio (% of Control) [1] | Stauro % Inhib Neuron Number [2] | inhibition at 10 µM [2, 3] [%] | Stauro % Inhib Nuclear Frag [2] | inhibition at 10 µM [2, 4] [%] |
| --- | --- | --- | --- | --- | --- | --- |
| CCCCNc1c(C2CCN(C(=O)c3ccc(C#N)cc3)CC2)nc2ccccn12 [NSI-149] | 113 ± 16 % of Control | 100 ± 6 % of Control | 47 ± 15% |  |  |  |
| CS(=O)(=O)N1CCCCC1C(=O)NCc1ccc(Nc2c(C3CC3)nc3ccccn23)cc1 (stereo not drawn) [NSI-127] | 81 ± 13 % of Control | 104 ± 8 % of Control |  |  |  |  |
| O=C(NC1CCN(Cc2ccccc2)CC1)c1cccnc1N1CCNCC1 [NSI-143] | 143 ± 6 % of Control | 130 ± 14 % of Control |  | 123 ± 77 |  |  |
| O=C(c1cccnc1N1CCNCC1)N1CCN(Cc2ccncc2)CC1 [NSI-142] | 152 ± 22 % of Control | 125 ± 15 % of Control |  |  |  |  |
| CCN(CCNC(=O)c1cccnc1NCCC(C)C)Cc1cccnc1 [NSI-190] | 130 ± 22 % of Control | 127 ± 9 % of Control | 32 ± 1% | 42 ± 30 |  |  |
| CC(C)(C)OC(=O)NCCNC(=O)c1cccnc1NCC1CCCCC1 [NSI-157] | 135 ± 15 % of Control | 142 ± 6 % of Control |  |  |  |  |
| CS(=O)(=O)N(CC(=O)NCc1nc2ccccn2c1NCc1ccccc1)c1ccccc1 [NSI-185] | 141 ± 70 % of Control | 135 ± 15 % of Control |  |  | N/N |  |
| O=C(NCc1nc2ccccn2c1NCC1CCCO1)Oc1ccccc1 (stereo not drawn) [NSI-182] | 95 ± 9 % of Control | 125 ± 10 % of Control |  | 85 ± 45 |  | 108 ± 21 |
| CC(C)CCNc1ncccc1C(=O)N1CCN(Cc2ccccc2)CC1 [NSI-189] | 102 ± 41 % of Control | 130 ± 19 % of Control | N/N |  |  |  |
| CCCCNc1c(C2CCN(C(=O)CN(CC(C)C)S(C)(=O)=O)CC2)nc2cnccn12 [NSI-106] | 77 ± 12 % of Control | 92 ± 6 % of Control | 16 ± 19% |  |  |  |
| CCCNc1ncc(C(N)=O)c(NC2CCCC2)n1 [NSI-137] | 151 ± 40 % of Control | 116 ± 8 % of Control |  | 87 ± 41 |  |  |
| NC(=O)C1CCCN1C(=O)c1cccnc1NCC1CCCCC1 (stereo not drawn) [NSI-158] | 93 ± 17 % of Control | 106 ± 9 % of Control | 22 ± 18% |  |  | 48 ± 14 |
| C=CCNC(=O)c1cccnc1NCc1ccccc1OC [NSI-150] | 107 ± 29 % of Control | 99 ± 6 % of Control |  |  |  |  |
| COc1ccc(CCNc2ncc(C(N)=O)c(NC3CC3)n2)cc1OC [NSI-130] | 124 ± 8 % of Control | 128 ± 4 % of Control |  | 56 ± 17 |  |  |
| NC(=O)c1cnc(NCc2ccc(Cl)cc2)nc1NCC1CCCCC1 [NSI-144] | 179 ± 29 % of Control | 137 ± 8 % of Control |  |  |  |  |
| O=C(COc1ccccc1)NCc1nc2ccccn2c1NCC1CCCO1 (stereo not drawn) [NSI-183] | 128 ± 13 % of Control | 131 ± 4 % of Control |  |  |  |  |
